Measured values published in patent US10351718B2, “Optical filter and imaging device” (AGC Inc., priority 2015, dated 2019).

What was measured:
[1] = Solubility of dye to resin solution; assay type: physicochemical; settings: for Solubility Evaluation / Solubility: 12.5 mass % polyester resin OKP850 in cyclohexanone:MIBK 1:1, 50° C.; for Solubility: stirred two hours, visual; for Solubility to the resin solution (in words): polyester resin OKP850 solution, 50° C., compared to dyes without branch structure in R^1
Method: Regarding several kinds of the dyes obtained above, solubility to a resin solution was evaluated. In a solubility test, as the resin solution, there was used a solution having a resin concentration of 12.5 mass % that was prepared by dissolving a polyester resin (product name: OKP850 made by Osaka Gas Chemicals Co., Ltd.) in a mixed solvent (cyclohexanone:methyl isobutyl ketone (MIBK)=1:1). Results are illustrated in Table 5 together with the kinds of the used dyes. Incidentally, the temperature of the resin solution in the solubility test was 50° C., the dye was put into the resin solution, the resultant resin solution was stirred for two hours, and whether or not the dye was dissolved was observed visually. Evaluation criteria of the solubility are as follows.
A: Solubility greater than 10 mass %
B: Solubility greater than 5 mass % and 10 mass % or less
C: Solubility 5 mass % or less

[2] = Absorption characteristic of the dye in dichloromethane; assay type: physicochemical; settings: for λ80 (wavelength with 80% transmittance on shorter wavelength side of λmax) / λmax − λ80: dichloromethane, transmittance at λmax set to 10%; for εA (maximum absorption coefficient in a wavelength of 430 to 550 nm) / εB (maximum absorption coefficient in a wavelength of 670 to 730 nm) / εB/εA / λmax (maximum absorption wavelength): dissolved in dichloromethane
Method: The dyes obtained above were each dissolved in dichloromethane, and using an ultraviolet-visible spectrophotometer (made by Hitachi High Technologies Co., Ltd., U-4100 type), each spectral transmittance curve was measured, from which a maximum absorption wavelength λmax, a wavelength λ80 with which the transmittance becomes 80% on a shorter wavelength side than the maximum absorption wavelength with the transmittance at the maximum absorption wavelength set to 10%, the difference between the maximum absorption wavelength λmax and the wavelength λ80 (λmax−λ80), a maximum absorption coefficient εA in a wavelength of 430 to 550 nm, a maximum absorption coefficient εB in a wavelength of 670 to 730 nm, and a ratio of these (εB/εA) were calculated. Note that measurement of the dye (A9) was not performed because its solubility was low. Further, for each of the following spectral transmittance curves, an ultraviolet-visible spectrophotometer (made by Hitachi High Technologies Co., Ltd., U-4100 type) was used.

Compound	Solubility Evaluation [1]	Solubility [1] [mass %]	λ80 (wavelength with 80% transmittance on shorter wavelength side of λmax) [2] [nm]	λmax − λ80 [2] [nm]	εA (maximum absorption coefficient in a wavelength of 430 to 550 nm) [2]	εB (maximum absorption coefficient in a wavelength of 670 to 730 nm) [2]	εB/εA [2]	λmax (maximum absorption wavelength) [2] [nm]	Solubility to the resin solution (in words) [1]
CC1N(C)c2cc(NS(=O)(=O)c3ccc(C(F)(F)F)cc3)c(C3=C([O-])C(=c4cc5c(cc4NS(=O)(=O)c4ccc(C(F)(F)F)cc4)=[N+](C)C(C)C5(C)C)C3=O)cc2C1(C)C (stereo not drawn) [Dye A1-8]	C (5 mass % or less)	3	634	61	0.0117	1	85.5	695	–
CC(C)N1c2cc(NS(=O)(=O)C(F)(F)F)c(C3=C([O-])C(=c4cc5c(cc4NS(=O)(=O)C(F)(F)F)=[N+](C(C)C)C(C)C5(C)C)C3=O)cc2C(C)(C)C1C (stereo not drawn) [Dye A1-9]	A (greater than 10 mass %)	12	651	52	0.0082	1	122	703	high solubility
CCCCCCCCS(=O)(=O)Nc1cc2c(cc1C1=C([O-])C(=c3cc4c(cc3NS(=O)(=O)CCCCCCCC)=[N+](C)C(C)C4(C)C)C1=O)C(C)(C)C(C)N2C (stereo not drawn) [Dye A1-1]	C (5 mass % or less)	1	630	61	0.0130	1	76.9	691	–
CCCCCCCCS(=O)(=O)Nc1cc2c(cc1C1=C([O-])C(=c3cc4c(cc3NS(=O)(=O)CCCCCCCC)=[N+](C(C)C)C(C)(C)C4(C)C)C1=O)C(C)(C)C(C)(C)N2C(C)C [Dye A1-24]	–	–	651	49	0.0110	1	89.7	700	–
CC(C)N1c2cc(NS(=O)(=O)c3ccc(F)cc3)c(C3=C([O-])C(=c4cc5c(cc4NS(=O)(=O)c4ccc(F)cc4)=[N+](C(C)C)C(C)C5(C)C)C3=O)cc2C(C)(C)C1C (stereo not drawn) [Dye A1-11]	–	–	648	52	0.0110	1	90.9	700	–
CCCCCCCCS(=O)(=O)Nc1cc2c(cc1C1=C([O-])C(=c3cc4c(cc3NS(=O)(=O)CCCCCCCC)=[N+](C(C)C)C(C)C4(C)C)C1=O)C(C)(C)C(C)N2C(C)C (stereo not drawn) [Dye A1-15]	A (greater than 10 mass %)	15	646	52	0.0112	1	89.3	698	high solubility
CCCCCCCCS(=O)(=O)Nc1cc2c(cc1C1=C([O-])C(=c3cc4c(cc3NS(=O)(=O)CCCCCCCC)=[N+](C(C)(C)CC)C(C)C4(C)C)C1=O)C(C)(C)C(C)N2C(C)(C)CC (stereo not drawn) [Dye A1-21]	A (greater than 10 mass %)	12	656	49	0.0143	1	69.9	705	high solubility
CC(C)N1c2cc(NS(=O)(=O)c3ccc(C(F)(F)F)cc3)c(C3=C([O-])C(=c4cc5c(cc4NS(=O)(=O)c4ccc(C(F)(F)F)cc4)=[N+](C(C)C)C(C)C5(C)C)C3=O)cc2C(C)(C)C1C (stereo not drawn) [Dye A1-16]	A (greater than 10 mass %)	12	650	52	0.0111	1	90.1	702	high solubility
CC1N(C)c2cc(NS(=O)(=O)C(F)(F)F)c(C3=C([O-])C(=c4cc5c(cc4NS(=O)(=O)C(F)(F)F)=[N+](C)C(C)C5(C)C)C3=O)cc2C1(C)C (stereo not drawn) [Dye A1-2]	C (5 mass % or less)	5	634	63	0.0066	1	152	697	–
CCCCCc1ccc(S(=O)(=O)Nc2cc3c(cc2C2=C([O-])C(=c4cc5c(cc4NS(=O)(=O)c4ccc(CCCCC)cc4)=[N+](C)C(C)C5(C)C)C2=O)C(C)(C)C(C)N3C)cc1 (stereo not drawn) [Dye A1-7]	–	–	633	60	0.0147	1	68.0	693	–
CCCc1ccc(S(=O)(=O)Nc2cc3c(cc2C2=C([O-])C(=c4cc5c(cc4NS(=O)(=O)c4ccc(CCC)cc4)=[N+](C(C)C)C(C)C5(C)C)C2=O)C(C)(C)C(C)N3C(C)C)cc1 (stereo not drawn) [Dye A1-14]	–	–	647	52	0.0121	1	82.6	699	–
